Results as given in ChEMBL document CHEMBL1156700, “Metabolic stereoselectivity of cytochrome P450 3A4 towards deoxypodophyllotoxin: In silico predictions and experimental validation” (Eur J Med Chem, 2008).

What was measured:
Assay type in all cases: ADME
[1] = target: T1, Cytochrome P450 3A4 (Homo sapiens, UniProt P08684); experiment: Activity of human recombinant CYP3A4 co-expressed in Escherichia coli with human p450 NADPH reductase assessed as conversion of deoxypodophyllotoxin to epipodophyllotoxin; conditions: recombinant enzyme
T1 sequence (P08684 whole entry): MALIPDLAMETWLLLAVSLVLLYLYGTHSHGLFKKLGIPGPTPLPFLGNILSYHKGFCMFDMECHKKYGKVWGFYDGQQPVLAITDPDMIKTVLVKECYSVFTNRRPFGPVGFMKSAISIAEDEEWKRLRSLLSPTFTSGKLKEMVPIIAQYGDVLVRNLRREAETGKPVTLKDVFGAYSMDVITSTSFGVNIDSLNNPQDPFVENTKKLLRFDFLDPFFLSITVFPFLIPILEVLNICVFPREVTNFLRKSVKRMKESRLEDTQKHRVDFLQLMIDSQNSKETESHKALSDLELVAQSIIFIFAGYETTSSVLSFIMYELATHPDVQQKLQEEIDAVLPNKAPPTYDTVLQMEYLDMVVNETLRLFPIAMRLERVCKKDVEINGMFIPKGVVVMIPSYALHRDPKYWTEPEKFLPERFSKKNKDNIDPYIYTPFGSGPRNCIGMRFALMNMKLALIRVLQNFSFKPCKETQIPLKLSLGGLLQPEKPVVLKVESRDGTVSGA

[2] = target: T1, Cytochrome P450 3A4; experiment: Activity of human recombinant CYP3A4 assessed as conversion of testosterone to 6-beta-hydroxytestesterone at 25 uM after 60 mins in presence of 25 uM Miconazole; conditions: recombinant enzyme, 1 h
[3] = target: T1, Cytochrome P450 3A4; experiment: Ratio of Vmax to Km for human recombinant CYP3A4; conditions: recombinant enzyme
[4] = target: T1, Cytochrome P450 3A4; experiment: Activity of human recombinant CYP3A4 assessed as conversion of testosterone to 6-beta-hydroxytestesterone at 25 uM after 60 mins in presence of 25 uM epipodophyllotoxin; conditions: recombinant enzyme, 1 h

Structure (SMILES): C[C@]12CC[C@H]3[C@@H](CCC4=CC(=O)CC[C@@]43C)[C@@H]1CC[C@@H]2O [TESTOSTERONE]
- Km [1]: 20.5 µM
- Vmax [1]: 30.3 nmol/min
- inhibition (INH) [2]: 4.38%
- Vmax/Km [3]: 0.15 nM⁻¹ min⁻¹
- inhibition (INH) [4]: 11.46%
